# In patent US20020147210A1, “Methods for delaying recurrence of herpes virus symptoms” (3M Innovative Properties Company, priority 2000, published 2002):
# Tested on: recurrent herpes genitalis (herpes virus)
# Assay: Randomized, double-blind vehicle-controlled clinical study of resiquimod gel formulations topically applied to herpetic lesions of the external genitalia
# Type: in vivo, human
# Settings: topical, patients with recurrent herpes genitalis, 6 month observation period
# Procedure: Propylene glycol (700 g) and resiquimod (4-amino-2-ethoxymethyl-α,α-dimethyl-1H-imidazo[4,5-c]quinoline-1-ethanol, 1.4 g) were added to a 1000 mL glass beaker. The resulting mixture was heated (about 55° C.) with stirring until all of the resiquimod was dissolved. The resulting solution was added to the mixing bowl of a ROSS LDM-4 mixer. Triacetin (11,968.7 g) was added to the mixing bowl and the resulting mixture was mixed for 10 minutes at 36 rpm. Colloidal silicon dioxide (1,330.0 g, AEROSIL®200 from Degussa, Frankfurt, Germany) was added in five parts. After each addition the resulting mixture was mixed at ambient pressure for 1 to 2 minutes at 36 rpm and then under vacuum (18 inches of Hg below ambient pressure, […]) for about 9 minutes at 36 rpm. The sides of the mixing bowl and the mixing blades were scraped. The formulation was mixed under vacuum (17 inches of Hg below ambient pressure, […]) for about 10 minutes at 36 rpm. The resulting gel contained 0.01% resiquimod, 5.0% propylene glycol, 9.5% colloidal silicon dioxide, and 85.49% triacetin.
# Using the method described above, a second formulation was prepared by combining 7.0 g of resiquimod, 700.0 g of propylene glycol, 11963.0 g of triacetin and 1,330.0 g of colloidal silicon dioxide. The resulting gel contained 0.05% resiquimod, 5.0% propylene glycol, 9.5% colloidal silicon dioxide, and 85.45% triacetin.
# A randomized, double-blind vehicle (placebo)-controlled study was performed to evaluate single and multi-weekly doses of the resiquimod formulations prepared above topically applied to herpetic lesions on the skin of the external genitalia.
# 52 otherwise healthy patients (20 to 60 years of age, inclusive) with a history of recurrent herpes genitalis (≧6 episodes per year) participated in the study. […] After passing screening, patients were enrolled into a 12-week eligibility period to qualify for treatment by virtue of experiencing a herpetic recurrence. During the eligibility period patients' qualified for the treatment period by coming to the study site for treatment visit one within 24 hours of a recurrence. At this visit patients were stratified by sex and enrolled sequentially into an active treatment or vehicle treatment regimen.
# The treatment period began with the first treatment visit and ended with the final treatment visit. The treatment groups were 0.05 percent resiquimod containing formulation or formulation alone (vehicle) 1×/week for 4 weeks; 0.05 percent resiquimod containing formulation or formulation alone 2×/week for 3 weeks; 0.01 percent resiquimod formulation or formulation alone 2×/week for 3 weeks; or 0.01 percent resiquimod formulation or formulation alone 3×/week for 3 weeks. […]
smiles,measurement,setting,value
"CCOCc1nc2c(N)nc3ccccc3c2n1CC(C)(C)O [Resiquimod, 4-amino-α,α-dimethyl-2-ethoxymethyl-1H-imidazo[4,5-c]quinoline-1-ethanol]",Median No. Days to Recurrence after treatment cessation,"0.01% resiquimod gel, 2×/wk, 3 weeks",172.5 days
same,Median No. Days to Recurrence after treatment cessation,"0.01% resiquimod gel, 3×/wk, 3 weeks",>195 days
same,Median No. Days to Recurrence after treatment cessation,"0.05% resiquimod gel, 1×/wk, 4 weeks",>60 days
same,Median No. Days to Recurrence after treatment cessation,"0.05% resiquimod gel, 2×/wk, 3 weeks",105 days
